# In patent US20260209175A1, “PHARMACEUTICALLY ACCEPTABLE 5-METHOXY-N,N-DIMETHYL[…] AND COMPOSITIONS THEREOF” (priority 2022, published 2026):
# Tests used:
# Assay type in all cases: physicochemical
# [1] = Solubility assessments in four different media; conditions: 50 mg per vial; for Observation: 0.5 ml media at 37° C.
# Method: Solubility assessments of 5-MeO-DMT oxalate, hydrobromide fumarate and benzoate were performed in four different media: […]
# [2] = Dissolution rate in simulated nasal fluid (UV-fiber optic dissolution apparatus); conditions: 5 mg in 5 mL simulated nasal fluid, 37° C., 150 RPM
# Method: The dissolution rate was determined using a method comprising the use of a UV-fiber optic-based dissolution apparatus (one such suitable device is the Rainbow® Dynamic Dissolution Monitor by Pion Inc) and simulated nasal fluid. The simulated nasal fluid comprises 7.45 g/L NaCl, 1.29 g/L KCl, 0.32 g/L CaCl2×2H2O and deionised water.
# The dissolution apparatus was set up with a 2 mm probe to measure the dissolution rate. 5 mg of the salt form was transferred into 5 mL of simulated nasal fluid, heated to a constant temperature of 37° C. and stirred at 150 RPM using a crossed stirrer bar. Measurements were taken at 3 s intervals for 130 intervals followed by 60 measurements taken at 10 s intervals for a total time of 16 minutes and 30 s. Detection of dissolution is by UV absorbance.
# [3] = Polymorphism screen of benzoate salt (thermal cycling, evaporations, antisolvent additions, cooling), XRPD
# Method: To render the amorphous and thus remove seeds of the supplied pattern 1 the supplied material was lyophilised in an attempt to render it amorphous. To 2.396 g of the supplied benzoate salt lot 800674000 dioxane (55 ml) and water (5 ml) was added. The mixture was agitated gently and warmed to aid dissolution.
# Twenty five of the lyophilised samples were treated with solvent and thermally cycled between ambient and 40° C. with four hours spent under each condition. After three days and solids were isolated by centrifuge filtration and analysed by XRPD.
# Twelve samples of the lyophilised material were treated with a minimal volume (ca 0.5 ml) of warm solvent, syringe filtered through a 0.22 micrometre filter and added to a clean HPLC vial and allowed to evaporate at RT. The solvents used and XRPD results following evaporation are detailed in the Table below:
# For antisolvent additions thirteen samples of the lyophilised material were dissolved in a small amount of hot solvent (^~0.5 ml). […] A large excess of antisolvent was then added, the vials sealed. After storage at RT overnight, and samples where no solid had been produced were first cooled to 4° C. for ^~24 hrs, and again if no solid was produced, they were cooled to −18° C. Any solids were isolated by centrifuge filtration and analysed by XRPD.
# For the cooling experiments twelve samples of the lyophilised material were dissolved in a small amount of hot solvent (^~0.5 ml) and syringe filtered through a 0.22 μm filter into a clean HPLC vial. Samples were allowed to cool to RT, and if no solid was produced to 4° C. and then to −18° C. Solids were isolated by centrifuge filtration and analysed by XRPD.
compound,measurement,setting,value
"COc1ccc2[nH]cc(CCN(C)C)c2c1.O=C(O)c1ccccc1 [benzoate salt, 5-MeO-DMT benzoate]",pH after addition of 0.5 ml media at 37° C.,[1]; SNF,6.77
same,Observation,[1]; SNF,Clear solution
same,pH after addition of 0.5 ml media at 37° C.,[1]; pH 1.2 buffer,5.28
same,Observation,[1]; pH 1.2 buffer,Clear solution
same,pH after addition of 0.5 ml media at 37° C.,[1]; pH 4.5 buffer,5.22
same,Observation,[1]; pH 4.5 buffer,Clear solution
same,pH after addition of 0.5 ml media at 37° C.,[1]; pH 6.8 buffer,6.82
same,Observation,[1]; pH 6.8 buffer,Clear solution
same,dissolution rate,[2],almost instantaneous
same,XRPD Results,"[3]; antisolvent addition, solvent DMF, anti solvent PhMe, Cooled −18 C., DJP2202-012-07",No solid
same,XRPD Results,"[3]; antisolvent addition, solvent EtOH, anti solvent Heptane, Some solid at RT, DJP2202-012-04",Pattern 1
same,XRPD Results,"[3]; antisolvent addition, solvent EtOH, anti solvent TBME, Cooled −18 C., DJP2202-012-03",No solid
same,XRPD Results,"[3]; antisolvent addition, solvent IPAC, anti solvent TBME, Cooled −18 C., DJP2202-012-08",No solid
same,XRPD Results,"[3]; antisolvent addition, solvent MEK, anti solvent Heptane, Some solid at RT, DJP2202-012-10",Pattern 2
same,XRPD Results,"[3]; antisolvent addition, solvent MEK, anti solvent TBME, Cooled −18 C., DJP2202-012-09",No solid
same,XRPD Results,"[3]; antisolvent addition, solvent MeCN, anti solvent PhMe, Some solid at RT, DJP2202-012-12",Pattern 4
same,XRPD Results,"[3]; antisolvent addition, solvent MeCN, anti solvent TBME, Cooled −18 C., DJP2202-012-11",No solid
same,XRPD Results,"[3]; antisolvent addition, solvent MeOH, anti solvent TBME, Cooled −18 C., DJP2202-012-02",No solid
same,XRPD Results,"[3]; antisolvent addition, solvent MeOH/water Aw 0.2, anti solvent MeOH, Cooled −18 C., DJP2202-012-01",No solid
same,XRPD Results,"[3]; antisolvent addition, solvent THF, anti solvent TBME, Cooled −18 C., DJP2202-012-05",No solid
same,XRPD Results,"[3]; antisolvent addition, solvent dioxane, anti solvent TBME, Cooled −18 C., DJP2202-012-06",No solid
same,XRPD Results,"[3]; cooling experiment, EtOH, Solid at RT, DJP2202-013-05",Pattern 4
same,XRPD Results,"[3]; cooling experiment, IPA, Solid at RT, DJP2202-013-06",Pattern 4
same,XRPD Results,"[3]; cooling experiment, IPAC, Solid at RT, DJP2202-013-10",Pattern 4
same,XRPD Results,"[3]; cooling experiment, MEK, Solid at RT, DJP2202-013-11",Pattern 2
same,XRPD Results,"[3]; cooling experiment, MeCN, Solid at RT, DJP2202-013-12",Pattern 4
same,XRPD Results,"[3]; cooling experiment, MeOH/water Aw 0.2, Cooled −18 C., DJP2202-013-01",Pattern 4
same,XRPD Results,"[3]; cooling experiment, MeOH/water Aw 0.6, Cooled −18 C., DJP2202-013-02",no solids
same,XRPD Results,"[3]; cooling experiment, MeOH, Cooled −18 C., DJP2202-013-04",no solids
same,XRPD Results,"[3]; cooling experiment, THF, Solid at RT, DJP2202-013-07",Pattern 4
same,XRPD Results,"[3]; cooling experiment, Water, Cooled −18 C., DJP2202-013-03",Pattern 4
same,XRPD Results,"[3]; cooling experiment, chlorobenzene, Solid at RT, DJP2202-013-09",mix #4 #2
same,XRPD Results,"[3]; cooling experiment, dioxane, Solid at RT, DJP2202-013-08",Pattern 3
same,XRPD Result,"[3]; evaporation at RT of lyophilised material from 1-PrOH, DJP2202-010-02",Oil
same,XRPD Result,"[3]; evaporation at RT of lyophilised material from EtOH, DJP2202-010-05",Oil
same,XRPD Result,"[3]; evaporation at RT of lyophilised material from IPA, DJP2202-010-06",Pattern 4
same,XRPD Result,"[3]; evaporation at RT of lyophilised material from IPAC, DJP2202-010-10",Pattern 2
same,XRPD Result,"[3]; evaporation at RT of lyophilised material from MEK, DJP2202-010-11",Pattern 4
same,XRPD Result,"[3]; evaporation at RT of lyophilised material from MIBK, DJP2202-010-04",Oil
same,XRPD Result,"[3]; evaporation at RT of lyophilised material from MeCN, DJP2202-010-12",Pattern 4
same,XRPD Result,"[3]; evaporation at RT of lyophilised material from THF, DJP2202-010-07",Pattern 4
same,XRPD Result,"[3]; evaporation at RT of lyophilised material from chlorobenzene, DJP2202-010-09",Pattern 4
same,XRPD Result,"[3]; evaporation at RT of lyophilised material from dioxane, DJP2202-010-08",Pattern 4
same,XRPD Result,"[3]; thermal cycle ambient/40° C., 3 days, 1,4-Dioxane 200 μl, isolated after thermal cycle, DJP2202-006-01",Pattern 3
same,XRPD Result,"[3]; thermal cycle ambient/40° C., 3 days, 1-Propanol 200 μl, isolated after thermal cycle, DJP2202-006-02",Pattern 4
same,XRPD Result,"[3]; thermal cycle ambient/40° C., 3 days, 2-Butanol 200 μl, isolated after thermal cycle, DJP2202-006-03",Pattern 4
same,XRPD Result,"[3]; thermal cycle ambient/40° C., 3 days, 2-Me-1-PrOH 200 μl, isolated after thermal cycle, DJP2202-006-21",Pattern 4
same,XRPD Result,"[3]; thermal cycle ambient/40° C., 3 days, 2-Methyltetrahydrofuran 200 μl, isolated after thermal cycle, DJP2202-006-05",Pattern 4
same,XRPD Result,"[3]; thermal cycle ambient/40° C., 3 days, 2-Propanol 200 μl, isolated after thermal cycle, DJP2202-006-06",Pattern 4
same,XRPD Result,"[3]; thermal cycle ambient/40° C., 3 days, Acetone 200 μl, isolated after thermal cycle, DJP2202-006-07",Pattern 4
same,XRPD Result,"[3]; thermal cycle ambient/40° C., 3 days, Acetonitrile 200 μl, isolated after thermal cycle, DJP2202-006-08",Pattern 4
same,XRPD Result,"[3]; thermal cycle ambient/40° C., 3 days, Anisole 200 μl, isolated after thermal cycle, DJP2202-006-09",Pattern 4
same,XRPD Result,"[3]; thermal cycle ambient/40° C., 3 days, Chlorobenzene 200 μl, isolated after thermal cycle, DJP2202-006-10",Pattern 4 +
same,XRPD Result,"[3]; thermal cycle ambient/40° C., 3 days, Ethanol 150 μl, isolated after thermal cycle, DJP2202-006-11",Pattern 4
same,XRPD Result,"[3]; thermal cycle ambient/40° C., 3 days, Ethyl acetate 200 μl, isolated after thermal cycle, DJP2202-006-12",Pattern 4
same,XRPD Result,"[3]; thermal cycle ambient/40° C., 3 days, Formamide 150 μl, isolated after thermal cycle, DJP2202-006-17",Pattern 4
same,XRPD Result,"[3]; thermal cycle ambient/40° C., 3 days, Isopropyl acetate 200 μl, isolated after thermal cycle, DJP2202-006-13",Pattern 4
same,XRPD Result,"[3]; thermal cycle ambient/40° C., 3 days, MeOH/water 360/640 Calc Aw 0.821, 200 μl, clear solution, evaporated to solid, DJP2202-006-25",Pattern 1
same,XRPD Result,"[3]; thermal cycle ambient/40° C., 3 days, MeOH/water 693/307 Calc Aw 0.599, 200 μl, clear solution, evaporated to solid, DJP2202-006-24",Pattern 1
same,XRPD Result,"[3]; thermal cycle ambient/40° C., 3 days, Methanol 200 μl, clear solution, evaporated to solid, DJP2202-006-14",Pattern 1
same,XRPD Result,"[3]; thermal cycle ambient/40° C., 3 days, Methylethyl ketone 200 μl, isolated after thermal cycle, DJP2202-006-16",Pattern 4
same,XRPD Result,"[3]; thermal cycle ambient/40° C., 3 days, Propyl acetate 200 μl, isolated after thermal cycle, DJP2202-006-15",Pattern 4
same,XRPD Result,"[3]; thermal cycle ambient/40° C., 3 days, Tetrahydrofuran 200 μl, isolated after thermal cycle, DJP2202-006-22",Pattern 4
same,XRPD Result,"[3]; thermal cycle ambient/40° C., 3 days, iso-Propyl acetate 200 μl, isolated after thermal cycle, DJP2202-006-20",Pattern 4
